# According to patent US9000017B2, “Combinations of imazalil and silver compounds” (Janssen Pharmaceutica NV, priority 2006, dated 2015):
# Like-named read-outs stand apart in the source and are kept apart here.
# Experiments:
# Assay in all cases: Poison Plate Assay
# Format in all cases: cell-based
# [1] = system: Rhodoturula rubra; settings: 336 h, Rhodoturula rubra B 52183, ppm total active ingredient, PDA, 22° C., two weeks, read-out: MIC-values in ppm (minimum inhibitory concentration)
# Protocol: (§1) [table] […] [table] MIC values (minimum inhibitory concentration in ppm total active ingredient) were noted and synergy was calculated using the Synergy Index method described by Kull et al. (Kull, […], and R. L. Mayer (1961) “Mixtures of quaternary ammonium compounds and long-chain fatty acids as antifungal agents” Applied Microbiology 9: 538-541; also see Zwart Voorspuij, A. J., and […] (1957) “Some aspects of the notions additivity, synergism and antagonism in the simultaneous activity of two antibacterial agents in vitro” Arch. intern. […] Steinberg, D. C. […] Petrocci, H. A. Green, and J. J. Merianos (1977) “Antimicrobial composition” U.S. Pat. […] MIC), • Qa is the concentration of compound A in ppm, in the mixture, which produced an end point (e.g. MIC), • QB is the concentration of compound B in ppm, acting alone, which produced an end point (e.g. MIC), • Qb is the concentration of compound B in ppm, in the mixture, which produced an end point (e.g. MIC). […] When the SI is equal to 1.0, additivity is indicated.
# [2] = system: Pseudomonas aeruginosa; settings: Pseudomonas aeruginosa NCIB 8295, ppm total active ingredient, Tryptose Agar, 27° C., one week
# Protocol: as §1
# [3] = system: Penicillium purpurogenum; settings: Penicillium purpurogenum CBS 170.60, ppm total active ingredient, PDA, 22° C., two weeks
# Protocol: as §1
# [4] = imazalil with silver perchlorate, label = % imazalil + % silver perchlorate
structure (smiles),measurement,setting,value
C=CCOC(Cn1ccnc1)c1ccc(Cl)cc1Cl (stereo not drawn) [imazalil],MIC,"[1]; imazalil with silver nitrate, label = % imazalil + % silver nitrate",158 µg/mL
same,MIC,[1]; [4],119 µg/mL
same,MIC,"[2]; NCIB8295, 168 h, imazalil with silver nitrate, label = % imazalil + % silver nitrate, read-out: MIC-values in ppm (minimum inhibitory concentration)",667 µg/mL
same,MIC-values in ppm (minimum inhibitory concentration),[2]; [4],667 ppm
same,MIC,"[3]; CBS170, 336 h, imazalil with silver nitrate, label = % imazalil + % silver nitrate, read-out: MIC-values in ppm (minimum inhibitory concentration)",158 µg/mL
same,MIC-values in ppm (minimum inhibitory concentration),[3]; [4],158 ppm
